Columns and labels:
[1] = system: glioma cell lines U87 and U251; test: cell viability with DS, TMZ and the combination; type: cell-based; settings: Homo sapiens, U-251, TMZ 200 μM, DS 200 nM, alone or combined
Description: To investigate the ability of DS to modify the response of glioma cells to TMZ treatment, we evaluated the effects of TMZ (200 μM) alone, DS (200 nM) alone, and a combination of both TMZ and DS on the viability of the glioma cell lines U87 and U251 (Figure 5A).
The antiproliferative effect of DS on cells growing in culture was determined using the CellTiter-Blue (Promega, Madison, WI) viability assay. The mean drug concentration required to inhibit cell proliferation by 50% (IC50) compared with vehicle-treated controls was calculated using CalcuSyn Version 2.0 software (Great ShelfordCambridge, United Kingdom).

[2] = system: U87 xenografts; test: U87 intracranial xenograft, DS, TMZ or DS + TMZ; settings: U87 xenograft-bearing nude mice, TMZ 7.5 mg/kg
Description: Data are presented as the mean ± SD of three experiments. […] D, Kaplan–Meier survival curves comparing the treatments using log-rank tests. DS and TMZ were compared with the control group, and DS + TMZ was compared with the control group, TMZ alone, and DS alone. E, Representative H&E-stained whole brain sections at 4 weeks after treatment. […] The tissue sections were incubated with antibodies against Ki-67.
To evaluate the long-term antitumor effect of the TMZ/DS combination, we further assessed the effects of TMZ, DS, or the combination treatment on the survival rate of U87 xenograft-bearing nude mice, which indirectly reflected the survival of tumor-bearing mice relative to their tumor burden.

[3] = system: U87 GFP-LC3 cells; test: GFP-LC3 puncta detection (autophagy); type: cell-based, human; settings: TMZ 125 μM, DS 100 nM, control 2%
Description: To investigate the effects of DS, TMZ, or the TMZ/DS combination on autophagy in glioma cells, we transfected cells with GFP-LC3 constructs in addition to various drug treatment and control treatment regimens and examined the accumulation of punctate GFP-LC3 structures using fluorescence microscopy. During autophagy, LC3-II relocalizes to the autophagosomal membranes. Thus, the accumulation of GFP-LC3 puncta provides an effective way to detect autophagosomes. In control cells, GFP-LC3 punctate structures were not detected, but large numbers of GFP-LC3 punctate structures were found in cells treated with DS or TMZ (Figure 5C). […] Strikingly, the combination of DS and TMZ further induced autophagy in up to 50% of U87 cells.
U87 GFP-LC3 cells were analyzed by using a fluorescence microscope, and the percentage of cells displaying GFP-LC3-positive puncta was quantified by counting 5 random fields in 3 independent experiments.

With `Cn1nnc2c(C(N)=O)ncn2c1=O` [TMZ, temozolomide, reference compound] the viability at 200 µM [1] was 93%, the “tumor burden compared with control groups” value [2] was “did not reduce the tumor burden” and the “cells with induced autophagy (GFP-LC3 puncta)” value [3] was 10%.

From publication PMC5400620, “Preclinical therapeutic efficacy of a novel blood-brain barrier-penetrant dual PI3K/mTOR inhibitor with preferential response in PI3K/PTEN mutant glioma” (Oncotarget, 2017)
